In patent publication US20230107642A1 (Erasca, Inc., priority 2020, published 2023):

Target: T1, Cys12 of the KRAS 4B G12C protein (Homo sapiens, UniProt P01116, G12C)
T1 construct: This protein contained 188 amino acids in total, including an N-terminal 6-Histidine tag; made in house; host or cells: E. coli BL21
Test: In vitro covalent adduct formation (CAF) assay, LC-MS intact mass
Type: binding
Details: after 60 min
Summary of the method: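 Percent covalent modification from intact-mass LC-MS, by relative free versus adducted protein (adducts within 1 Da of expected mass). Reaction: 10 μM compound with 5 μM E. coli-expressed, GDP-exchanged KRAS 4B G12C in TBS pH 7.4, 4% DMSO, 1 h at 22° C.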

Structure (SMILES)	CAF (% binding after 60 min) [%]
C=CC(=O)N1CCN(c2nc(=O)n3c4c(c(-c5ccc(F)c(Cl)c5)c(C(F)(F)F)cc24)SC[C@H](OCOC)C3)CC1 [Example 1006, (R)-8-(4-acryloylpiperazin-1-yl)-11-(3-chloro-4-fluorophenyl)-3-(methoxymethoxy)-10-(trifluoromethyl)-3,4-dihydro-2H,6H-[1,4]thiazepino[2,3,4-ij]quinazolin-6-one]	90
C=CC(=O)N1CCN(c2nc(=O)n3c4c(c(-c5ccc(F)c(Cl)c5)c(C(F)(F)F)cc24)SC[C@@H](OCOC)C3)CC1 [Example 1007, (S)-8-(4-acryloylpiperazin-1-yl)-11-(3-chloro-4-fluorophenyl)-3-(methoxymethoxy)-10-(trifluoromethyl)-3,4-dihydro-2H,6H-[1,4]thiazepino[2,3,4-ij]quinazolin-6-one]	97
C=CC(=O)N1CCN(c2nc(=O)n3c4c(c(-c5cc(Cl)c(F)cc5F)c(C(F)(F)F)cc24)SC[C@H](OCOC)C3)CC1 [Example 1008, (3R)-8-(4-acryloylpiperazin-1-yl)-11-(5-chloro-2,4-difluorophenyl)-3-(methoxymethoxy)-10-(trifluoromethyl)-3,4-dihydro-2H,6H-[1,4]thiazepino[2,3,4-ij]quinazolin-6-one]	92
C=CC(=O)N1[C@H](C)CN(c2nc(=O)n3c4c(c(-c5ccc(F)cc5)c(C(F)(F)F)cc24)SC[C@H](OCOC)C3)C[C@@H]1C [Example 1009, (R)-8-((3S,5R)-4-acryloyl-3,5-dimethylpiperazin-1-yl)-11-(4-fluorophenyl)-3-(methoxymethoxy)-10-(trifluoromethyl)-3,4-dihydro-2H,6H-[1,4]thiazepino[2,3,4-ij]quinazolin-6-one]	96
C=CC(=O)N1[C@H](C)CN(c2nc(=O)n3c4c(c(-c5ccc(F)cc5)c(C(F)(F)F)cc24)SC[C@@H](OCOC)C3)C[C@@H]1C [Example 1010, (S)-8-((3S,5R)-4-acryloyl-3,5-dimethylpiperazin-1-yl)-11-(4-fluorophenyl)-3-(methoxymethoxy)-10-(trifluoromethyl)-3,4-dihydro-2H,6H-[1,4]thiazepino[2,3,4-ij]quinazolin-6-one]	96
C=CC(=O)N1[C@H](C)CN(c2nc(=O)n3c4c(c(-c5ccc(F)cc5F)c(C(F)(F)F)cc24)SC[C@H](OCOC)C3)C[C@@H]1C [Example 1011, (3R)-8-((3S,5R)-4-acryloyl-3,5-dimethylpiperazin-1-yl)-11-(2,4-difluorophenyl)-3-(methoxymethoxy)-10-(trifluoromethyl)-3,4-dihydro-2H,6H-[1,4]thiazepino[2,3,4-ij]quinazolin-6-one]	97
C=CC(=O)N1[C@H](C)CN(c2nc(=O)n3c4c(c(-c5ccc(F)cc5F)c(C(F)(F)F)cc24)SC[C@@H](OCOC)C3)C[C@@H]1C [Example 1012, (3S)-8-((3S,5R)-4-acryloyl-3,5-dimethylpiperazin-1-yl)-11-(2,4-difluorophenyl)-3-(methoxymethoxy)-10-(trifluoromethyl)-3,4-dihydro-2H,6H-[1,4]thiazepino[2,3,4-ij]quinazolin-6-one]	95
C=CC(=O)N1[C@H](C)CN(c2nc(=O)n3c4c(c(-c5ccc(F)c(Cl)c5)c(C(F)(F)F)cc24)SC[C@H](OCOC)C3)C[C@@H]1C [Example 1013, (R)-8-((3S,5R)-4-acryloyl-3,5-dimethylpiperazin-1-yl)-11-(3-chloro-4-fluorophenyl)-3-(methoxymethoxy)-10-(trifluoromethyl)-3,4-dihydro-2H,6H-[1,4]thiazepino[2,3,4-ij]quinazolin-6-one]	95
C=CC(=O)N1[C@H](C)CN(c2nc(=O)n3c4c(c(-c5ccc(F)c(Cl)c5)c(C(F)(F)F)cc24)SC[C@@H](OCOC)C3)C[C@@H]1C [Example 1014, (S)-8-((3S,5R)-4-acryloyl-3,5-dimethylpiperazin-1-yl)-11-(3-chloro-4-fluorophenyl)-3-(methoxymethoxy)-10-(trifluoromethyl)-3,4-dihydro-2H,6H-[1,4]thiazepino[2,3,4-ij]quinazolin-6-one]	96
C=CC(=O)N1[C@H](C)CN(c2nc(=O)n3c4c(c(-c5cc(Cl)c(F)cc5F)c(C(F)(F)F)cc24)SC[C@@H](OCOC)C3)C[C@@H]1C [Example 1015, (3S)-8-((3S,5R)-4-acryloyl-3,5-dimethylpiperazin-1-yl)-11-(5-chloro-2,4-difluorophenyl)-3-(methoxymethoxy)-10-(trifluoromethyl)-3,4-dihydro-2H,6H-[1,4]thiazepino[2,3,4-ij]quinazolin-6-one]	84
C=CC(=O)N1CCN(c2nc(=O)n3c4c(c(-c5ccc(F)cc5)c(C(F)(F)F)cc24)SC[C@H](OCCOC)C3)CC1 [Example 1016, (R)-8-(4-acryloylpiperazin-1-yl)-11-(4-fluorophenyl)-3-(2-methoxyethoxy)-10-(trifluoromethyl)-3,4-dihydro-2H,6H-[1,4]thiazepino[2,3,4-ij]quinazolin-6-one]	98
C=CC(=O)N1CCN(c2nc(=O)n3c4c(c(-c5ccc(F)cc5)c(C(F)(F)F)cc24)SC[C@@H](OCCOC)C3)CC1 [Example 1017, (S)-8-(4-acryloylpiperazin-1-yl)-11-(4-fluorophenyl)-3-(2-methoxyethoxy)-10-(trifluoromethyl)-3,4-dihydro-2H,6H-[1,4]thiazepino[2,3,4-ij]quinazolin-6-one]	98
C=CC(=O)N1CCN(c2nc(=O)n3c4c(c(-c5ccc(F)cc5F)c(C(F)(F)F)cc24)SC[C@H](OCCOC)C3)CC1 [Example 1018, (3R)-8-(4-acryloylpiperazin-1-yl)-11-(2,4-difluorophenyl)-3-(2-methoxyethoxy)-10-(trifluoromethyl)-3,4-dihydro-2H,6H-[1,4]thiazepino[2,3,4-ij]quinazolin-6-one]	96
C=CC(=O)N1CCN(c2nc(=O)n3c4c(c(-c5ccc(F)cc5F)c(C(F)(F)F)cc24)SC[C@@H](OCCOC)C3)CC1 [Example 1019, (3S)-8-(4-acryloylpiperazin-1-yl)-11-(2,4-difluorophenyl)-3-(2-methoxyethoxy)-10-(trifluoromethyl)-3,4-dihydro-2H,6H-[1,4]thiazepino[2,3,4-ij]quinazolin-6-one]	97
C=CC(=O)N1CCN(c2nc(=O)n3c4c(c(-c5ccc(F)c(Cl)c5)c(C(F)(F)F)cc24)SC[C@H](OCCOC)C3)CC1 [Example 1020, (R)-8-(4-acryloylpiperazin-1-yl)-11-(3-chloro-4-fluorophenyl)-3-(2-methoxyethoxy)-10-(trifluoromethyl)-3,4-dihydro-2H,6H-[1,4]thiazepino[2,3,4-ij]quinazolin-6-one]	97
C=CC(=O)N1CCN(c2nc(=O)n3c4c(c(-c5ccc(F)c(Cl)c5)c(C(F)(F)F)cc24)SC[C@@H](OCCOC)C3)CC1 [Example 1021, (S)-8-(4-acryloylpiperazin-1-yl)-11-(3-chloro-4-fluorophenyl)-3-(2-methoxyethoxy)-10-(trifluoromethyl)-3,4-dihydro-2H,6H-[1,4]thiazepino[2,3,4-ij]quinazolin-6-one]	97
C=CC(=O)N1CCN(c2nc(=O)n3c4c(c(-c5cc(Cl)c(F)cc5F)c(C(F)(F)F)cc24)SC[C@H](OCCOC)C3)CC1 [Example 1022, (3R)-8-(4-acryloylpiperazin-1-yl)-11-(5-chloro-2,4-difluorophenyl)-3-(2-methoxyethoxy)-10-(trifluoromethyl)-3,4-dihydro-2H,6H-[1,4]thiazepino[2,3,4-ij]quinazolin-6-one]	85
C=CC(=O)N1CCN(c2nc(=O)n3c4c(c(-c5cc(Cl)c(F)cc5F)c(C(F)(F)F)cc24)SC[C@@H](OCCOC)C3)CC1 [Example 1023, (3S)-8-(4-acryloylpiperazin-1-yl)-11-(5-chloro-2,4-difluorophenyl)-3-(2-methoxyethoxy)-10-(trifluoromethyl)-3,4-dihydro-2H,6H-[1,4]thiazepino[2,3,4-ij]quinazolin-6-one]	97
C=CC(=O)N1[C@H](C)CN(c2nc(=O)n3c4c(c(-c5ccc(F)cc5)c(C(F)(F)F)cc24)SC[C@H](OCCOC)C3)C[C@@H]1C [Example 1024, (R)-8-((3S,5R)-4-acryloyl-3,5-dimethylpiperazin-1-yl)-11-(4-fluorophenyl)-3-(2-methoxyethoxy)-10-(trifluoromethyl)-3,4-dihydro-2H,6H-[1,4]thiazepino[2,3,4-ij]quinazolin-6-one]	97
C=CC(=O)N1[C@H](C)CN(c2nc(=O)n3c4c(c(-c5ccc(F)cc5)c(C(F)(F)F)cc24)SC[C@@H](OCCOC)C3)C[C@@H]1C [Example 1025, (S)-8-((3S,5R)-4-acryloyl-3,5-dimethylpiperazin-1-yl)-11-(4-fluorophenyl)-3-(2-methoxyethoxy)-10-(trifluoromethyl)-3,4-dihydro-2H,6H-[1,4]thiazepino[2,3,4-ij]quinazolin-6-one]	96
C=CC(=O)N1[C@H](C)CN(c2nc(=O)n3c4c(c(-c5ccc(F)cc5F)c(C(F)(F)F)cc24)SC[C@H](OCCOC)C3)C[C@@H]1C [Example 1026, (3R)-8-((3S,5R)-4-acryloyl-3,5-dimethylpiperazin-1-yl)-11-(2,4-difluorophenyl)-3-(2-methoxyethoxy)-10-(trifluoromethyl)-3,4-dihydro-2H,6H-[1,4]thiazepino[2,3,4-ij]quinazolin-6-one]	95
C=CC(=O)N1[C@H](C)CN(c2nc(=O)n3c4c(c(-c5ccc(F)cc5F)c(C(F)(F)F)cc24)SC[C@@H](OCCOC)C3)C[C@@H]1C [Example 1027, (3S)-8-((3S,5R)-4-acryloyl-3,5-dimethylpiperazin-1-yl)-11-(2,4-difluorophenyl)-3-(2-methoxyethoxy)-10-(trifluoromethyl)-3,4-dihydro-2H,6H-[1,4]thiazepino[2,3,4-ij]quinazolin-6-one 3,4-dihydro-2H,6H-[1,4]thiazepino[2,3,4-ij]quinazolin-6-one]	96
